Measured values reported in patent publication US5571524A, “Agent for curing ischemic myocardial disease” (Unitika Ltd., priority 1994, dated 1996).

Key:
Mongrel dogs [1] = assay: Coronary blood flow increase effect, nonischemic condition; assay type: in vivo; details: for Coronary blood flow: N = 1 - 2; for coronary blood flow increase: nonischemic
Procedure: (§1) Mongrel dogs weighing 18-22 kg were anesthetized with pentobarbital sodium (30 mg/kg). The trachea was intubated, and the dog was ventilated with room air with oxygen. The chest was opened through the left fifth intercostal space, and the heart was suspended in a pericardial cradle. The left anterior descending coronary artery was cannulated and perfused with blood via the carotid artery through an extracorporeal bypass tube after heparinization (500 units/kg). Coronary blood flow (CBF) was measured with an electromagnetic flow probe attached to the bypass tube, and coronary perfusion pressure (CPP) was monitored at the tip of the coronary arterial cannula. A small, short collecting tube was cannulated into a small coronary vein near the center of the perfused area to sample coronary venous blood. The drained venous blood was collected in a reservoir placed at the level of the left atrium. A high fidelity of left ventricular pressure and its first derivative were measured by a micromanometer (model P-5, Konigsberg Instruments, Inc., Pasadena, Calif.) placed in the left ventricular cavity through the apex. A pair of ultrasonic crystals was placed in the center of the perfused area about 1 cm apart to measure myocardial segment length with an ultrasonic dimension gauge (5 MHz, Schuessler, Cardiff by the Sea, Calif.). End-diastolic length (EDL) was determined at the R wave of the electrocardiogram, and end-systolic length (ESL) was determined at the minimal dP/dt. Fractional shortening was calculated by (EDL-ESL)/EDL as an index of myocardial contractility of the perfused area.
After stabilization, a physiological saline solution […], with the dosage thereof increased to 0.5, 1, 2, 4 and 8 μg/kg/min, and the changes in coronary blood flow were measured in order to assess the coronary blood flow increase effect of Ap4A.
8-sulfophenyltheophylline (hereinafter referred to as 8-SPT) serving as adenosine P1 receptor antagonist with a dose of 25 μg/kg/min was tested.
The above test was also repeated by replacing 8-SPT with N^G -nitro-L-arginine methyl ester (hereinafter referred to as L-NAME) serving as an endothelial-cell-induced nitric oxide (NO) synthesis inhibitor with a dose of 3 μg/kg/min(ic).
The above test was then repeated using 8-SPT and L-NAME in combination.

coronary vessels = details: at normal time; cited from earlier work
Mongrel dogs [2] = assay: Myocardial oxygen consumption (MVO2), nonischemic condition; assay type: in vivo; details: for Myocardial oxygen consumption: control 9.1
Procedure: as §1
After stabilization, a physiological saline solution prepared by dissolving Ap4A.4Na in physiological saline was continuously infused into the coronary artery, with the dosage thereof increased to 0.5, 1, 2, 4 and 8 μg/kg/min, and the changes in coronary blood flow were measured in order to assess the coronary blood flow increase effect of Ap4A.
Changes in myocardial oxygen consumption (MVO2) (ml/100 g/min) caused by the administration of Ap4A were measured as shown in TABLE 2.

[3] = Japanese Laid-Open Patent Application 3-167126; cited from earlier work
Mongrel dogs [4] = assay: Amelioration of myocardial ischemia: coronary blood flow, fractional shortening and perfusion pressure during factitious 1/3 blood flow; assay type: in vivo; details: for Myocardial fractional shortening / Coronary blood flow / Coronary perfusion pressure: ischemia (1/3 blood flow), N = 2
Procedure: as §1
(§2) After stabilization, CPP was decreased with partial occlusion of the bypass tube to the left anterior descending coronary artery such that CBF decreased to one third of the control flow. The low CPP was maintained during this test.
(§3) Blood sampling from coronary veins and coronary arteries was conducted. Then the intracoronary administration of Ap4A was stopped. The lowered coronary perfusion pressure was further maintained for 10 minutes.
(§4) The above test was repeated by replacing Ap4A with adenosine with the dosage thereof being changed to 4, 8 and 16 μg/kg/min.

[5] = cited from earlier work
[6] = Japanese Laid-Open Patent Application 5-286861; cited from earlier work
[7] = test system: rabbit mesenteric arteries; details: R. Busse et al. 1988; cited from earlier work
human platelet = details: Leuthje and Ogiluie 1984; cited from earlier work
Mongrel dogs [8] = assay: Lactate extraction ratio and pH of venous blood during ischemia; assay type: in vivo; details: ischemia (1/3 blood flow), N = 2
Procedure: as §1
Namely, the lactate extraction ratio was obtained by coronary arteriovenous difference in lactate concentration multiplied by 100 and divided by arterial lactate concentration.
as §2, §3, §4
As mentioned previously, in the above-mentioned experimental systems, lactate extraction ratio and pH of venous blood were measured at the time of the intracoronary administration of Ap4A and also at the time of the intracoronary administration of adenosine.

In the case of `Nc1ncnc2c1ncn2[C@@H]1O[C@H](COP(=O)(O)OP(=O)(O)OP(=O)(O)OP(=O)(O)OC[C@H]2O[C@@H](n3cnc4c(N)ncnc43)[C@H](O)[C@@H]2O)[C@@H](O)[C@H]1O` [Ap4A, Diadenosine 5',5"'-p^1, p^4 -tetraphosphate], the “coronary blood flow increase effect of Ap4A in presence of 8-SPT” value (Mongrel dogs [1]; 8-SPT 25 μg/kg/min) is reported as “partially inhibited”, the “coronary blood flow increase effect of Ap4A in presence of 8-SPT and L-NAME” value (Mongrel dogs [1]; 8-SPT and L-NAME in combination) is reported as “not completely inhibited” and the “coronary blood flow increase effect of Ap4A in presence of L-NAME” value (Mongrel dogs [1]; L-NAME 3 μg/kg/min (ic)) is reported as “only slightly inhibited”. It also gave a Coronary blood flow (Mongrel dogs [1]; Untreated (no inhibitor), Ap4A 0.5 μg/kg/min intracoronary, control 93.7) of 104.1 ml/100 g/min, a Coronary blood flow (Mongrel dogs [1]; Untreated (no inhibitor), Ap4A 1 μg/kg/min intracoronary, control 93.7) of 122.2 ml/100 g/min and a Coronary blood flow (Mongrel dogs [1]; Untreated (no inhibitor), Ap4A 2 μg/kg/min intracoronary, control 93.7) of 137.6 ml/100 g/min. The Coronary blood flow (Mongrel dogs [1]; Untreated (no inhibitor), Ap4A 4 μg/kg/min intracoronary, control 93.7) was 158.9 ml/100 g/min, the Coronary blood flow (Mongrel dogs [1]; Untreated (no inhibitor), Ap4A 8 μg/kg/min intracoronary, control 93.7) was 202.2 ml/100 g/min and the “coronary blood flow increase” value (Mongrel dogs [1]; intracoronary 0.5 to 8 μg/kg/min) was “significantly increasing the coronary blood flow dose-dependently”. The “coronary blood flow increase” value (Mongrel dogs [1]; intravenous administration) was “This effect was also observed”, the Coronary blood flow (Mongrel dogs [1]; with 8-SPT 25 μg/kg/min, Ap4A 0.5 μg/kg/min, control 97.0) was 98.6 ml/100 g/min and the Coronary blood flow (Mongrel dogs [1]; with 8-SPT 25 μg/kg/min, Ap4A 1 μg/kg/min, control 97.0) was 96.8 ml/100 g/min. The Coronary blood flow (Mongrel dogs [1]; with 8-SPT 25 μg/kg/min, Ap4A 2 μg/kg/min, control 97.0) was 106.1 ml/100 g/min, the Coronary blood flow (Mongrel dogs [1]; with 8-SPT 25 μg/kg/min, Ap4A 4 μg/kg/min, control 97.0) was 117.0 ml/100 g/min and the Coronary blood flow (Mongrel dogs [1]; with 8-SPT 25 μg/kg/min, Ap4A 8 μg/kg/min, control 97.0) was 124.5 ml/100 g/min. It also gave a Coronary blood flow (Mongrel dogs [1]; with 8-SPT + L-NAME, Ap4A 0.5 μg/kg/min, control 97.1) of 97.1 ml/100 g/min, a Coronary blood flow (Mongrel dogs [1]; with 8-SPT + L-NAME, Ap4A 1 μg/kg/min, control 97.1) of 108.6 ml/100 g/min and a Coronary blood flow (Mongrel dogs [1]; with 8-SPT + L-NAME, Ap4A 2 μg/kg/min, control 97.1) of 102.9 ml/100 g/min. It also gave a Coronary blood flow (Mongrel dogs [1]; with 8-SPT + L-NAME, Ap4A 4 μg/kg/min, control 97.1) of 114.3 ml/100 g/min, a Coronary blood flow (Mongrel dogs [1]; with 8-SPT + L-NAME, Ap4A 8 μg/kg/min, control 97.1) of 120.0 ml/100 g/min and a Coronary blood flow (Mongrel dogs [1]; with L-NAME 3 μg/kg/min (ic), Ap4A 0.5 μg/kg/min, control 90.3) of 100.0 ml/100 g/min. It also gave a Coronary blood flow (Mongrel dogs [1]; with L-NAME 3 μg/kg/min (ic), Ap4A 1 μg/kg/min, control 90.3) of 119.4 ml/100 g/min, a Coronary blood flow (Mongrel dogs [1]; with L-NAME 3 μg/kg/min (ic), Ap4A 2 μg/kg/min, control 90.3) of 122.6 ml/100 g/min and a Coronary blood flow (Mongrel dogs [1]; with L-NAME 3 μg/kg/min (ic), Ap4A 4 μg/kg/min, control 90.3) of 151.6 ml/100 g/min. For the same compound, the Coronary blood flow (Mongrel dogs [1]; with L-NAME 3 μg/kg/min (ic), Ap4A 8 μg/kg/min, control 90.3) was 219.4 ml/100 g/min, the “vasodilating effect on coronary vessels” value (coronary vessels) was “vasodilating effect on coronary vessels at normal time” and the Myocardial oxygen consumption (Mongrel dogs [2]; Ap4A 0.5 μg/kg/min) was 9.9 ml/100 g/min. It also gave a Myocardial oxygen consumption (Mongrel dogs [2]; Ap4A 1 μg/kg/min) of 9.0 ml/100 g/min, a Myocardial oxygen consumption (Mongrel dogs [2]; Ap4A 2 μg/kg/min) of 8.7 ml/100 g/min and a Myocardial oxygen consumption (Mongrel dogs [2]; Ap4A 4 μg/kg/min) of 8.7 ml/100 g/min. The Myocardial oxygen consumption (Mongrel dogs [2]; Ap4A 8 μg/kg/min) was 9.5 ml/100 g/min, the “myocardial oxygen consumption (MVO2) change” value (Mongrel dogs [2]; Ap4A 0.5 to 8 μg/kg/min) was “neither largely increased nor decreased” and the anti-arrhythmia effect [3] was “anti-arrhythmia effect”. For the same compound, the Myocardial fractional shortening (Mongrel dogs [4]; Ap4A 4 μg/kg/min intracoronary 10 minutes, control 24.7, 1/3 control 4.9) was 11.5%, the Coronary blood flow (Mongrel dogs [4]; Ap4A 4 μg/kg/min intracoronary 10 minutes, control 90.5, 1/3 control 30.4) was 48.2 ml/100 g/min and the Coronary perfusion pressure (Mongrel dogs [4]; Ap4A 4 μg/kg/min intracoronary 10 minutes, control 104, 1/3 control 54) was 54 mmHg. For the same compound, the Myocardial fractional shortening (Mongrel dogs [4]; Ap4A administration stopped, 1/3 control 4.9) was 4.8%, the Coronary blood flow (Mongrel dogs [4]; Ap4A administration stopped, 1/3 control 30.4) was 31.9 ml/100 g/min and the Coronary perfusion pressure (Mongrel dogs [4]; Ap4A administration stopped, 1/3 control 54) was 54 mmHg. The “prevention of decrease in myocardial fractional shortening” value (Mongrel dogs [4]; ischemia, Ap4A 4 μg/kg/min) was “significantly preventing a decrease in myocardial fractional shortening”, the “amelioration effect on myocardial ischemia” value (Mongrel dogs [4]; mongrel dogs in a state of excessive ischemia) was “noticeable amelioration effect on myocardial ischemia” and the degradation in vivo [5] was “degraded in vivo to ATP and AMP, which are eventually degraded to adenosine”. For the same compound, the deliberated hypotensive effect [6] was “deliberated hypotensive effect”, the “vasodilating effect on rabbit mesenteric arteries” value [7] was “vasodilating effect on rabbit mesenteric arteries” and the “ADP-induced human platelet aggregation inhibitory effect” value (human platelet) was “ADP-induced human platelet aggregation inhibitory effect”. For the same compound, the “pH of venous blood” value (Mongrel dogs [8]; Ap4A 4 μg/kg/min intracoronary, control 7.39, 1/3 control 7.23) was 7.29, the Lactate extraction ratio (Mongrel dogs [8]; Ap4A 4 μg/kg/min intracoronary, control 28.3, 1/3 control -39.8) was -15.8% and the “pH of venous blood” value (Mongrel dogs [8]; Ap4A administration stopped, 1/3 control 7.23) was 7.19. The Lactate extraction ratio (Mongrel dogs [8]; Ap4A administration stopped, 1/3 control -39.8) was -48.6%.
